# Measurements published in paper PMC6372667 (Experimental & Molecular Medicine, 2019).
# Read-outs that look alike come from different tables or passages of the source.
# Columns and labels:
# [1] = target: T1, BACE1 (human recombinant β-secretase) (Homo sapiens, UniProt P56817); test: In vitro BACE1 FRET enzyme assay; assay type: biochemical; conditions: mean ± S.D. of three experiments
# Source text: (§1) BACE1 (human recombinant β-secretase) ([…]) and the BACE1 FRET (fluorescence resonance energy transfer) assay kit Red were purchased from ThermoFisher Scientific (P2985; Waltham, MA, USA). […] For the cell culture experiment, Dulbecco’s modified Eagle’s medium (DMEM), Opti-MEM, fetal bovine serum (FBS), and penicillin/streptomycin were obtained from Capricorn Scientific (Ebsdorfergrund, Germany). β-secretase inhibitor III (β-SI) was purchased from Calbiochem (Darmstadt, Germany). The protease inhibitor mixture (a mixture of AEBSF, pepstatin A, E-64, bestain, leupeptin, and aprotinin) was purchased from Sigma-Aldrich (St. Louis, MO, USA). Enzyme-linked immunosorbent assay (ELISA) kits for Aβ40 and Aβ42 were obtained from IBL (Kunma, Japan). All chemicals and solvents used were reagent grade, purchased from commercial sources, and used as received.
# The BACE1 FRET assay was carried out according to the manufacturer’s instructions with slight modifications as previously described. The assay was performed in a […] black plate using a multi-pipette.
# [2] = target: T2, Electric eel AChE (Electrophorus electricus, UniProt O42275); test: In vitro cholinesterase enzyme assay (Ellman), AChE; assay type: biochemical
# T2 construct: purchased Sigma-Aldrich Co
# Source text: as §1
# (§2) The inhibitory activities of pterosin derivatives against cholinesterases were measured using the method developed by Ellman et al.[32]. The reaction mixture contained 140 μL of sodium phosphate buffer (pH 8.0), 20 μL of test sample solution (final concentration of the compound 100 μM), and 20 μL of AChE or BChE solution, mixed and incubated for 15 min at room temperature. […] The reactions were initiated following the addition of 10 μL of DTNB and 10 μL of acetyl thiocholine iodide for the AChE assay or butyryl thiocholine chloride for the BChE assay in 96-well microplates, which were incubated for 15 min.
# [3] = target: T3, horse serum BChE (Equus caballus, UniProt P81908); test: In vitro cholinesterase enzyme assay (Ellman), BChE; assay type: biochemical
# T3 construct: horse serum BChE (EC 3.1.1.8); purchased Sigma-Aldrich Co; host or cells: horse serum
# Source text: as §1, §2
# [4] = test system: SH-SY5Y human neuroblastoma; test: MTT cytotoxicity assay, SH-SY5Y; assay type: cell-based; conditions: 24 h
# Description: (§3) Cytotoxicity was assessed using the MTT assay. Briefly, the cells were seeded into a 96-well plate at a density of 1×10^5 cells per well in 100 µL of corresponding media and incubated at 37 °C in an incubator under 5% CO2 tension for 24 h. The culture media were then replaced with 100 µL of fresh serum-free media in the presence of varied concentrations of pterosin derivatives, and cells were incubated for an additional 24 h. The control was treated with an equal amount of DMSO present in the assay for a 5 mM concentration. Then, 100 µL of MTT solution (0.5 mg/mL in Phosphate Buffered Saline (PBS)) was added to each culture. To measure the proportion of surviving cells, the media were replaced with 100 µL of DMSO 2 h after the administration of MTT solution. The absorbance was measured at 570 nm using a spectrophotometric plate reader (Molecular Devices, Sunnyvale, CA, USA).
# [5] = test system: C6 rat glial cells; test: MTT cytotoxicity assay, C6; assay type: cell-based; conditions: 24 h
# Description: as §3
# [6] = test system: NIH3T3 mouse embryo fibroblasts; test: MTT cytotoxicity assay, NIH3T3; assay type: cell-based; conditions: 24 h
# Description: as §3
# [7] = test system: B16F10 mouse melanoma; test: MTT cytotoxicity assay, B16F10; assay type: cell-based; conditions: 24 h
# Description: as §3
# [8] = test system: SH-SY5Y, C6, NIH3T3 and B16F10 cell lines; test: MTT cytotoxicity assay, all cell lines tested; assay type: cell-based
# Description: as §3
# [9] = target: T1, BACE1 (human recombinant β-secretase); test: Kinetic analysis of BACE1 inhibition (Dixon and Lineweaver−Burk plots); assay type: biochemical; conditions: for Inhibition type BACE1: Dixon and Lineweaver−Burk plots; for Ki: determined by Dixon plot, read-out: Ki BACE1
# Description: (§4) The Ki was determined by interpretation of the Dixon plot, with the value of the x-axis intercept taken as −Ki.
# Dixon plots for BACE1 inhibition by pterosin derivatives.
# Dixon plots for BACE1 inhibition by pteroside derivatives.
# [10] = target: T2, Electric eel AChE; test: Kinetic analysis of AChE inhibition (Dixon and Lineweaver−Burk plots); assay type: biochemical; conditions: for Inhibition type AChE: Dixon and Lineweaver−Burk plots; for Ki: determined by Dixon plot, read-out: Ki AChE
# Description: as §4
# Dixon plots for AChE inhibition by pterosin derivatives. (2S,3R)-Pterosin C (A), (2R,3R)-pterosin C (B), and (2R)-pterosin B (C) were tested in the presence of substrate concentrations of 0.1 mM (●), 0.3 mM (○), and 0.6 mM (▼). Lineweaver-Burk plots for AChE inhibition were generated with inhibitor concentrations of 0 µM (Δ), 4 µM (▼), 20 µM (○), and 100 µM (●) for (2S,3R)-pterosin C (D) and (2R,3R)-pterosin C (E); and 0 µM (Δ), 2 µM (▼), 10 µM (○), and 50 µM (●) for (2R)-pterosin B (F).
# Dixon plots for AChE inhibition by pteroside derivatives. (2R)-pteroside B (A), (2R,3R)-pteroside C (B), and (3S)-pteroside D (C) were tested in the presence of substrate concentrations of 0.1 mM (●), 0.3 mM (○), and 0.6 mM (▼). Lineweaver-Burk plots for AChE inhibition were generated with inhibitor concentrations of 0 µM (Δ), 0.8 µM (▼), 4 µM (○), and 20 µM (●) for (2R)-pteroside B (D), (2R,3R)-pteroside C (E), and (3S)-pteroside D (F).
# [11] = target: T3, horse serum BChE; test: Kinetic analysis of BChE inhibition (Dixon and Lineweaver−Burk plots); assay type: biochemical; conditions: for Inhibition type BChE: Dixon and Lineweaver−Burk plots; for Ki: determined by Dixon plot, read-out: Ki BChE
# Description: as §4
# Dixon plots for BChE inhibition by pterosin derivatives. (2S,3R)-Pterosin C (A), (2R,3R)-pterosin C (B), and (2R)-pterosin B (C) were tested in the presence of substrate concentrations of 0.2 mM (●), 0.4 mM (○), and 0.8 mM (▼).
# Dixon plots for BChE inhibition by pteroside derivatives. (2R)-pteroside B (A), (2R,3R)-pteroside C (B), and (3S)-pteroside D (C) were tested in the presence of substrate concentrations of 0.2 mM (●), 0.4 mM (○), and 0.8 mM (▼). Lineweaver-Burk plots for BChE inhibition were generated with inhibitor concentrations of 0 µM (Δ), 4 µM (▼), 20 µM (○), and 100 µM (●) for (2R)-pteroside B (D); 0 µM (Δ), 0.8 µM (▼), 4 µM (○), and 20 µM (●) for (2R,3R)-pteroside C (E) and (3S)-pteroside D (F).
# [12] = in vitro; assay type: in vitro ADME; conditions: for BBB permeation class: classified by Pe, given in words; for Papp at 4 h, 25 µg/mL: pig, PAMPA, pH 7.4, 25 °C, mean ± SD of quadruple experiments, read-out: PAMPA-BBB permeability Pe
# Description: PAMPA (parallel artificial membrane permeation assay) was used as a high-throughput assay to predict BBB permeation. Porcine polar brain lipid (PBL) was used as an artificial membrane to predict BBB permeation. Initially, the test compound was dissolved in DMSO at 5 mg/mL. This compound stock solution (10 µL) was diluted 200-fold in a universal buffer at pH 7.4 and mixed with a multi 8-channel pipette to obtain the secondary stock solution (final concentration 25 µg/mL). The secondary stock solution (200 µL) was placed in the donor wells. The filter membrane was coated with PBL in dodecane (4 mL volume of 20 mg/mL PBL in dodecane), and 5 µL of BBB-1 lipid solution was spread on PBL by pipette. The acceptor well was filled with […] of Acceptor Sink Buffer. The acceptor filter plate was cautiously positioned on the donor plate to assemble a “sandwich” (comprising an aqueous acceptor, artificial lipid membrane and aqueous donor with test compound on the top, middle and bottom, respectively). The test compound diffuses from the donor well to the acceptor well through the lipid membrane. After 4 h of incubation at pH 7.4 and 25 °C, the concentration of the compound in the acceptor, donor, reference and blank wells was estimated with a UV plate reader, Epoch Microplate Spectrophotometer (BioTek Instruments, Inc., Winooski, VT, USA). […] Samples were analyzed in quadruplets, and the average of the four runs was reported. To monitor the consistency of the analysis set, quality control standards were run with each sample set.
# PAMPA-BBB, an in vitro artificial membrane permeability assay for the BBB, is one of the most reliable physicochemical screening tools in the early stage discovery of CNS-targeted drugs. The PAMPA-BBB system models the transcellular passive diffusion of chemicals across the BBB and measures strictly passive transport mechanisms via an artificial lipid membrane on effective permeability (Pe, cm/s).
# [13] = target: BACE1; conditions: cited from earlier work
# [14] = test system: AChE; conditions: cited from earlier work
# [15] = test system: BChE; parameters: method as in PMID 18274286; conditions: cited from earlier work
# [16] = parameters: method as in PMID 23565574; conditions: PAMPA-BBB ref 49; cited from earlier work
# [17] = test system: aged triple transgenic mouse models of AD (3xTg-AD); conditions: 25 mg/kg i.p. every 48 h for 3 months, mice 21–24 months old ref 48; cited from earlier work
# [18] = test system: mouse models of diabetes; parameters: method as in PMID 23069626; conditions: cited from earlier work
# [19] = test system: mouse model of osteoarthritis; parameters: method as in PMID 27009967; conditions: 15 μL of 900 μM intra-articular, three times per week, 8–13 weeks ref 28; cited from earlier work
# [20] = mean ± S.D. of three experiments, read-out: IC50 AChE
# [21] = mean ± S.D. of three experiments, read-out: IC50 BChE
# [22] = oral 100 mg/kg/day for 4 weeks ref 29, 30
# T1 sequence (P56817 46-501): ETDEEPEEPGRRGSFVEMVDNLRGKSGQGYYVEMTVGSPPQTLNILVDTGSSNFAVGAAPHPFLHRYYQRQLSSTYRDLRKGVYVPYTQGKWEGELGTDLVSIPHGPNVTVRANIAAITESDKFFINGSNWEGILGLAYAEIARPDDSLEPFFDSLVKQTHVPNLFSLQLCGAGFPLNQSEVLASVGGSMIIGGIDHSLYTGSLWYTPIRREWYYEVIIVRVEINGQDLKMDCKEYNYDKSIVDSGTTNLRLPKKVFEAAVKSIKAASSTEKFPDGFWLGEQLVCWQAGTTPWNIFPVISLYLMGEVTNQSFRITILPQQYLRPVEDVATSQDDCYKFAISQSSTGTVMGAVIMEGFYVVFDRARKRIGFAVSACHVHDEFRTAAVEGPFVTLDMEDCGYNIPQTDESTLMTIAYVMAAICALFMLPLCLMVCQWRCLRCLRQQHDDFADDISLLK
# T3 sequence (P81908 whole entry): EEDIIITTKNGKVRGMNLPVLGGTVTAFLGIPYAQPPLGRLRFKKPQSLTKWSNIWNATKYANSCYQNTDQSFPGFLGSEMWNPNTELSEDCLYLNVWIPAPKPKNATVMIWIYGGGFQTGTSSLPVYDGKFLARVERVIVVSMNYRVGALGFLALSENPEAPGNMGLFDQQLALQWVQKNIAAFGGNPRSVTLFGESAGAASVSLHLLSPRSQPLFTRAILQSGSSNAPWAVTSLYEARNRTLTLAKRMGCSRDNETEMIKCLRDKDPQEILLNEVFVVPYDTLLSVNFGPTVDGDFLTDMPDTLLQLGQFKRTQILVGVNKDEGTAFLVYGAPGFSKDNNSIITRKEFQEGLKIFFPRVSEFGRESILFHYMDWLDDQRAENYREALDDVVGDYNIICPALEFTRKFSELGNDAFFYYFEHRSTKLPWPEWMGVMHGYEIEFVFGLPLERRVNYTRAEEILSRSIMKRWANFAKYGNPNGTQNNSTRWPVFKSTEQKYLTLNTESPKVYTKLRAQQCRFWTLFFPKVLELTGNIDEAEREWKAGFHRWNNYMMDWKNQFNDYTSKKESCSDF
# T2 sequence (O42275 24-633): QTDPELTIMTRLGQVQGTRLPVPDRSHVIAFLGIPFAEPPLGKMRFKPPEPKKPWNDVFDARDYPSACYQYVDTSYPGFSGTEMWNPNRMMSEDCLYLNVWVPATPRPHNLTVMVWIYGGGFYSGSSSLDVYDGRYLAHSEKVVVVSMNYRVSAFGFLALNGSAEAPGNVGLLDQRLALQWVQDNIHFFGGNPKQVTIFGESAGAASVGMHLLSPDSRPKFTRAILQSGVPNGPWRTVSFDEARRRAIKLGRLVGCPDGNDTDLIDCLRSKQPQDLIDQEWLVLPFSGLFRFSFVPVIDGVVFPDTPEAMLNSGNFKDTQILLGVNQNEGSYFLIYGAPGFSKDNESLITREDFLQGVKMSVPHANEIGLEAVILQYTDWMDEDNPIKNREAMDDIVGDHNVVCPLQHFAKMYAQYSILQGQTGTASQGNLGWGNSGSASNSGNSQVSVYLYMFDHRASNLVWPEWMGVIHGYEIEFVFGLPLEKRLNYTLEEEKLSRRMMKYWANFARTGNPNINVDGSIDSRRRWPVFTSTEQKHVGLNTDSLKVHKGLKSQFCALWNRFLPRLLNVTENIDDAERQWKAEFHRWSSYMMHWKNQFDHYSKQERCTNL
Compound,IC50 [1] [µM],"IC50 [2, 20] [µM]","IC50 [3, 21] [µM]","LD50 Based on MTT Assay, SY-SY5Y [4]","LD50 Based on MTT Assay, C6 [5]","LD50 Based on MTT Assay, NIH3T3 [6]","LD50 Based on MTT Assay, B16F10 [7]","LD50, cell lines tested [8]",BBB permeation class ([12]; PAMPA-BBB),also measured
"Cc1cc2c(c(C)c1CCO)C(=O)C(C)(C)C2O (stereo in doubt) [(3R)-Pterosin D, (3R)-pterosin D]",92.5 ± 7,68.7 ± 3.7,> 125,">5,000 µM",">5,000 µM",">5,000 µM",">5,000 µM",above 5 mM,,IC50 BChE ([3]; mean ± S.D. of three experiments): inactive at the concentrations tested
"Cc1cc2c(c(C)c1CCOC1OC(CO)C(O)C(O)C1O)C(=O)C(C)C2 [(2R)-Pteroside B, (2R)-pteroside B]",18 ± 2.8,2.55 ± 0.23,62 ± 0.71,">5,000 µM",">5,000 µM",">5,000 µM",">5,000 µM",above 5 mM,very low BBB permeability,"Inhibition type BACE1 [9]: Noncompetitive; Ki [9]: 23.1 µM; Inhibition type AChE [10]: Mixed-type; Ki [10]: 4.89 µM; Inhibition type BChE [11]: Mixed-type; Ki [11]: 22.6 µM; Papp at 4 h, 25 µg/mL [12]: 0.48 ± 0.29 ×10⁻⁶ cm/s"
"Cc1cc2c(c(C)c1CCOC1OC(CO)C(O)C(O)C1O)C(=O)C(C)(CO)C2 [(2S)-Pteroside A, (2S)-pteroside A]",84.6 ± 6,,,">5,000 µM",">5,000 µM",">5,000 µM",">5,000 µM",above 5 mM,,
"Cc1c(CCO)c(CO)cc2c1C(=O)[C@@H](C)C2 [(2S)-Pterosin P, (2S)-pterosin P]",67.1 ± 7.7,,,">5,000 µM",">5,000 µM",">5,000 µM",">5,000 µM",above 5 mM,high BBB permeation,"IC50 [2]: 17.8 ± 0.62 µM; IC50 [3]: 55.9 ± 5.6 µM; log Pe ([12]; PAMPA-BBB): -5.10; Papp at 4 h, 25 µg/mL [12]: 7.92 ± 0.36 ×10⁻⁶ cm/s"
"Cc1cc2c(c(C)c1CCOC1OC(CO)C(O)C(O)C1O)C(=O)C(C)(C)C2O [(3S)-Pteroside D, (3S)-pteroside D]",10.7 ± 1.5,27.4 ± 1.2,19.3 ± 0.17,"1,320 ± 86 µM",">5,000 µM",">5,000 µM",">5,000 µM",,very low BBB permeability,Inhibition type BACE1 [9]: Mixed-type; Ki [9]: 16.5 µM; Inhibition type AChE [10]: Mixed-type; Ki [10]: 23.1 µM; Inhibition type BChE [11]: Mixed-type; Ki [11]: 19.7 µM
CC#Cc1cncc(-c2ccc3c(c2)[C@@]2(N=C(C)C(N)=N2)[C@]2(CC[C@H](OC)CC2)C3)c1 [AZD3293],,,,,,,,,,Ki [13]: 0.0004 µM
"O=c1c(O)c(-c2ccc(O)c(O)c2)oc2cc(O)cc(O)c12 [Quercetin, quercetin]",,,,,,,,,,IC50 [14]: […]; Influence on BChE activity [15]: negligible influence; log Pe [16]: approximately −7; Effect on AD pathology [17]: effectively ameliorated AD pathology and tauopathy
Cc1cc2c(c(C)c1CCO)C(=O)C(C)(CO)C2 (stereo not drawn) [pterosin A],,,,,,,,,,"Oral bioavailability ([18]; diabetes animal experiment ref 29, 30): good oral bioavailability; Adverse effects [18, 22]: no significant adverse effects; Effect on glucose intolerance and insulin resistance [18, 22]: effectively improving glucose intolerance and insulin resistance"
Cc1cc2c(c(C)c1CCO)C(=O)[C@H](C)C2 [pterosin B],,,,,,,,,,Adverse effects [19]: without adverse effects; Effect on osteoarthritis [19]: ameliorating osteoarthritis
